# Reference: PMC10125328 (ACS Bio & Med Chem Au, 2023)
# “And” between values parts separate entries of the source, which are not always exact repeats. Equal values may be shown once. Read-outs that look alike come from different tables or passages of the source.
# Legend:
# [1] = target: T1, Ftu-1 β-lactamase (Francisella tularensis, UniProt Q5NH60); details: cited from earlier work
# [2] = target: T1, Ftu-1 β-lactamase; assay: biochemical
# [3] = target: T1, Ftu-1 β-lactamase; format: biochemical
# T1 sequence (Q5NH60 1-287): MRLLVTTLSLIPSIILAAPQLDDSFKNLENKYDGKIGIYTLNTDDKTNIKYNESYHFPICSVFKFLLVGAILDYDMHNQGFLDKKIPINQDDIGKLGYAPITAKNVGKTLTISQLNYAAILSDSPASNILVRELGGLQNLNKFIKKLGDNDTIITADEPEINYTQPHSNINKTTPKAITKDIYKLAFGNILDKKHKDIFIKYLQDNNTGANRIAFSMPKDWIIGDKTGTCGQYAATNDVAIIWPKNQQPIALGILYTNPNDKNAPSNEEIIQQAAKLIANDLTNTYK
structure (smiles),measurement,setting,value
CO[C@@]1(NC(=O)Cc2cccs2)C(=O)N2C(C(=O)O)=C(COC(N)=O)CS[C@@H]21 [cefoxitin],hydrolysis in the presence of Ftu-1,[1],unhydrolyzed
C[C@@H](O)[C@H]1C(=O)N2C(C(=O)O)=C(SCCN=CN)C[C@H]12 [imipenem],Ki,[2],73.8 µM
same,Km,[1],31 ± 4 µM
same,kcat,[1],0.017 ± 0.001 S^–1
CC1(C)[C@H](C(=O)O)N2C(=O)C[C@H]2S1(=O)=O [sulbactam],Ki,[2],21.1 µM
CC(C)(O/N=C(\C(=O)N[C@@H]1C(=O)N2C(C(=O)[O-])=C(C[n+]3ccccc3)CS[C@H]12)c1csc(N)n1)C(=O)O [ceftazidime],kcat,[1],0.022 ± 0.001 S^–1
C[C@@H](O)[C@H]1C(=O)N2C(C(=O)O)=C(S[C@@H]3CN[C@H](C(=O)N(C)C)C3)[C@H](C)[C@H]12 [meropenem],Ki,[2],1.53 µM
C[C@H]1[C@H](NC(=O)/C(=N\OC(C)(C)C(=O)O)c2csc(N)n2)C(=O)N1S(=O)(=O)O [aztreonam],hydrolysis in the presence of Ftu-1,[1],unhydrolyzed
CO/N=C(\C(=O)N[C@@H]1C(=O)N2C(C(=O)O)=C(COC(N)=O)CS[C@H]12)c1ccco1 [cefuroxime],Km,[1],14 ± 2 µM
C[C@]1(Cn2ccnn2)[C@H](C(=O)O)N2C(=O)C[C@H]2S1(=O)=O [tazobactam],Ki,[2],1.19 µM and 1.2 µM
O=C(Cc1cccs1)N[C@@H]1C(=O)N2C(C(=O)O)=C(CSc3ccc([N+](=O)[O-])c(C(=O)O)c3)CS[C@H]12 [CENTA],Km,[3]; pH 4.8,655 ± 37.1 µM
same,Vmax,[3]; pH 4.8,1.001 ± 0.005 µM/min
same,kcat,[3]; pH 4.8,101 ± 1 min^–1
same,Vmax,[3]; pH 5.8,13.12 ± 0.62 µM/min
same,kcat,[3]; pH 5.8,1312.75 ± 62.75 min^–1
same,Vmax,[3]; pH 6.4,24.8 ± 0.9 µM/min
same,Vmax,[3]; pH 7.2,30.5 ± 0.5 µM/min
same,Km,[3]; pH 7.6,128 ± 57 µM
same,Vmax,[3]; pH 7.6,49.51 ± 15.84 µM/min
same,kcat,[3]; pH 7.6,4951.67 ± 1583 min^–1
same,Km,[3]; pH 8.5,228 ± 11.1 µM
same,kcat,[3]; pH 9.5,38.96 ± 11.2 min^–1
same,Km,[3]; pH 10.5,218 ± 30.8 µM
same,kcat,[3]; pH 10.5,8.85 ± 0.15 min^–1
O=C(O)[C@H]1/C(=C/CO)O[C@@H]2CC(=O)N21 [clavulanic acid],Ki,[2],30.7 µM
